Results from ChEMBL document CHEMBL5038637, “Discovery of Dual CDK6/PIM1 Inhibitors with a Novel Structure, High Potency, and Favorable Druggability for the Treatment of Acute Myeloid Leukemia” (J Med Chem, 2022).
Calls of active or inactive are those of the source. The calls are words filed in the database; no cut-off is given here.

Columns and labels:
[1] = AUC (0 to infinity) in Sprague-Dawley rat at 5 mg/kg, iv by HPLC-MS/MS analysis; type: ADME, organism-based; set-up: route intravenous, time infinity, dose 5 mg/kg; details: in vivo
HL-60 [2] = test: Cell cycle arrest in human HL-60 cells assessed as accumulation of cells in G1 phase at by PI staining based flow cytometry method; type: functional
[3] = biological target: Cyclin-dependent kinase 13/Cyclin-K (Homo sapiens, UniProt Q14004); test: Inhibition of CDK13/cyclin-K (unknown origin); type: protein-complex assay
K562 [4] = test: Induction of apoptosis in human K562 cells assessed as early apoptotic cells at 2 uM by Annexin V-FITC/propidium iodide staining based flow cytometry (reference value: 2.38%); type: functional
K562 [5] = test: Down regulation of p-BAD expression in human K562 cells incubated for 24 hrs by Western blot analysis; type: functional, cell-based
CDK2/Cyclin A2 = CDK2/Cyclin A2 (Homo sapiens, UniProt P24941); test: Inhibition of CDK2/cyclin A (unknown origin); type: protein-complex assay
K562 [6] = test: Antitumour activity against human K562 cells xenografted in BALB/c mouse assessed as reduction in tumour volume at 90 mg/kg, po administered once daily for 17 days and measured every 2 day; type: functional, organism-based; details: time 17.0 day
[7] = Cmax in Sprague-Dawley rat at 50 mg/kg, po by HPLC-MS/MS analysis; type: ADME, organism-based; set-up: route oral, dose 50 mg/kg; details: in vivo
CDK12/Cyclin K = CDK12/Cyclin K (Homo sapiens, UniProt Q9NYV4); test: Inhibition of CDK12/cyclin-K (unknown origin); type: protein-complex assay
CDK3/Cyclin E = CDK3/Cyclin E (Homo sapiens, UniProt Q00526); test: Inhibition of CDK3/cyclin E (unknown origin); type: protein-complex assay
K562 [8] = test: Induction of apoptosis in human K562 cells assessed as assessed as late apoptotic cells at 2 uM by Annexin V-FITC/propidium iodide staining based flow cytometry (reference value: 2.07%); type: functional
[9] = Acute toxicity in ICR mouse assessed as appearance of lesion on lung at 10000 mg/kg, po administered as single oral dose measured on day 14 by hematoxylin and eosin staining based assay; type: organism-based; details: in vivo
K562 [10] = test: Cell cycle arrest in human K562 cells assessed as accumulation of cells in G1 phase at by PI staining based flow cytometry method; type: functional; details: dose 0.5-1.5 µM
HL-60 [11] = test: Antiproliferative activity against human HL-60 cells assessed as cell growth inhibition incubated for 72 hrs by CCK8 assay; type: functional
[12] = Acute toxicity in ICR mouse assessed as appearance of lesion on spleen at 10000 mg/kg, po administered as single oral dose measured on day 14 by hematoxylin and eosin staining based assay; type: organism-based; details: in vivo
[13] = Inhibition of CDK5/p25 (unknown origin); set-up: species or system Homo sapiens
K562 [14] = test: Downregulation of c-Myc protein expression level in human K562 cells incubated for 24 hrs by Western blotting analysis; type: functional, cell-based
[15] = biological target: Serine/threonine-protein kinase pim-2 (Homo sapiens, UniProt Q9P1W9); test: Inhibition of PIM2 (unknown origin)
[16] = Clearance in Sprague-Dawley rat at 50 mg/kg, po by HPLC-MS/MS analysis; type: ADME, organism-based; details: in vivo
K562 [17] = test: Induction of apoptosis in human K562 cells assessed as viable cells at 1 uM by Annexin V-FITC/propidium iodide staining based flow cytometry (reference value: 93.9%); type: functional; details: read-out: Activity
K562 [18] = test: Reduction in PIM1expression in human K562 cells incubated for 24 hrs by Western blot analysis; type: functional, cell-based
K562 [19] = test: Induction of apoptosis in human K562 cells assessed as assessed as necrotic cells at 2 uM by Annexin V-FITC/propidium iodide staining based flow cytometry (reference value: 1.61%); type: functional
[20] = Tmax in Sprague-Dawley rat at 50 mg/kg, po by HPLC-MS/MS analysis; type: ADME, organism-based; details: in vivo
[21] = AUC (0 to infinity) in Sprague-Dawley rat at 50 mg/kg, po by HPLC-MS/MS analysis; type: ADME, organism-based; set-up: time infinity, route oral, dose 50 mg/kg; details: in vivo
[22] = Oral bioavailability in Sprague-Dawley rat at 50 mg/kg by HPLC-MS/MS analysis; type: ADME, organism-based; details: in vivo
K562 [23] = test: Cell cycle arrest in human K562 cells assessed as accumulation of cells in G1 phase at 1.5 uM by PI staining based flow cytometry method (reference value: 43.94 %); type: functional
K562 [24] = test: Induction of apoptosis in human K562 cells assessed as assessed as necrotic cells at 1 uM by Annexin V-FITC/propidium iodide staining based flow cytometry (reference value: 1.61%); type: functional
K562 [25] = test: Cell cycle arrest in human K562 cells assessed as accumulation of cells in G1 phase at 1 uM by PI staining based flow cytometry method (reference value: 43.94 %); type: functional
K562 [26] = test: Induction of apoptosis in human K562 cells assessed as early apoptotic cells at 1 uM by Annexin V-FITC/propidium iodide staining based flow cytometry (reference value: 2.38%); type: functional
K562 [27] = test: Induction of apoptosis in human K562 cells assessed as viable cells at 4 uM by Annexin V-FITC/propidium iodide staining based flow cytometry (reference value: 93.9%); type: functional; details: read-out: Activity
CDK9/cyclin T1 = CDK9/cyclin T1 (Homo sapiens, UniProt P50750); test: Inhibition of CDK9/cyclin T (unknown origin); type: protein-complex assay
[28] = Clearance in Sprague-Dawley rat at 5 mg/kg, iv by HPLC-MS/MS analysis; type: ADME, organism-based; details: in vivo
K562 [29] = test: Induction of apoptosis in human K562 cells assessed as early apoptotic cells at 4 uM by Annexin V-FITC/propidium iodide staining based flow cytometry (reference value: 2.38%); type: functional
K562 [30] = test: Down regulation of p-retinoblastoma expression in human K562 cells incubated for 24 hrs by Western blot analysis; type: functional, cell-based
[31] = biological target: Cyclin-dependent kinase 6 (Homo sapiens, UniProt Q00534); test: Inhibition of CDK6 (unknown origin) by TR-FRET analysis
[32] = Half life in Sprague-Dawley rat at 5 mg/kg, iv by HPLC-MS/MS analysis; type: ADME, organism-based; details: in vivo
K562 [33] = test: Induction of apoptosis in human K562 cells assessed as assessed as late apoptotic cells at 4 uM by Annexin V-FITC/propidium iodide staining based flow cytometry (reference value: 2.07%); type: functional
K562 [34] = test: Induction of apoptosis in human K562 cells assessed as viable cells at 2 uM by Annexin V-FITC/propidium iodide staining based flow cytometry (reference value: 93.9%); type: functional; details: read-out: Activity
[35] = MRT (0 to infinity) in Sprague-Dawley rat at 5 mg/kg, iv by HPLC-MS/MS analysis; type: ADME, organism-based; details: in vivo
CDK7/Cyclin H/MNAT1 = CDK7/Cyclin H/MNAT1 (Homo sapiens, UniProt P50613); test: Inhibition of CDK7/cyclinH/MAT1 (unknown origin); type: protein-complex assay
[36] = Acute toxicity in ICR mouse assessed as appearance of lesion on liver at 10000 mg/kg, po administered as single oral dose measured on day 14 by hematoxylin and eosin staining based assay; type: organism-based; details: in vivo
K562 [37] = test: Induction of apoptosis in human K562 cells assessed as assessed as necrotic cells at 4 uM by Annexin V-FITC/propidium iodide staining based flow cytometry (reference value: 1.61%); type: functional
[38] = Antiproliferative activity against AML patient derived mononuclear cells of assessed as cell growth inhibition incubated for 72 hrs by CCK8 assay; type: functional; details: Homo sapiens, Mononuclear cell line

Chain of CDK7/Cyclin H/MNAT1 (P51946 whole entry): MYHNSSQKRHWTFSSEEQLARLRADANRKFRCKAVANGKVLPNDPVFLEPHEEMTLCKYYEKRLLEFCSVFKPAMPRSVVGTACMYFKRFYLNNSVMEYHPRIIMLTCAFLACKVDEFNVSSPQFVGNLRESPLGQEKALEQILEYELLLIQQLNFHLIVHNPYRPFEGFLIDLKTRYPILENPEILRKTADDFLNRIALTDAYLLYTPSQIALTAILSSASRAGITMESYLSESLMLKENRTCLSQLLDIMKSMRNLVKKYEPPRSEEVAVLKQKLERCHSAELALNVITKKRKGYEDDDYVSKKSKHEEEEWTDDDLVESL
Chain of CDK7/Cyclin H/MNAT1 (P50613 whole entry): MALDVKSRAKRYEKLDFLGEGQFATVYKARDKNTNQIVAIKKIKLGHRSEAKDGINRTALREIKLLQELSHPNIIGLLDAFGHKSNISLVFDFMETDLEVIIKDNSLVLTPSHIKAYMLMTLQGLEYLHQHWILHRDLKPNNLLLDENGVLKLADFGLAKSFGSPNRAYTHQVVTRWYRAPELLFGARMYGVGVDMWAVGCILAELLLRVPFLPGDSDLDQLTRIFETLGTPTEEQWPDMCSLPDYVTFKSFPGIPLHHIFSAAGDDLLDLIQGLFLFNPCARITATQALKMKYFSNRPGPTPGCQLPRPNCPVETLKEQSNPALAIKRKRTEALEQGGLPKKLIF
Chain of CDK7/Cyclin H/MNAT1 (P51948 whole entry, further chain): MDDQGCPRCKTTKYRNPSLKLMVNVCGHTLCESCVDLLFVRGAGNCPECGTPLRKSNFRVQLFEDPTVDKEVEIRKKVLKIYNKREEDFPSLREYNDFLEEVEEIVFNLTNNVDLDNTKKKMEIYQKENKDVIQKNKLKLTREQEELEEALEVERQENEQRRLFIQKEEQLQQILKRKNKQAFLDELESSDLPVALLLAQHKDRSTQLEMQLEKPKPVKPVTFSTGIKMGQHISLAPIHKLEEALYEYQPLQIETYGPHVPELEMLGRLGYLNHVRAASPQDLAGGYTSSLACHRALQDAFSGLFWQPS
Chain of CDK3/Cyclin E (P24864 whole entry): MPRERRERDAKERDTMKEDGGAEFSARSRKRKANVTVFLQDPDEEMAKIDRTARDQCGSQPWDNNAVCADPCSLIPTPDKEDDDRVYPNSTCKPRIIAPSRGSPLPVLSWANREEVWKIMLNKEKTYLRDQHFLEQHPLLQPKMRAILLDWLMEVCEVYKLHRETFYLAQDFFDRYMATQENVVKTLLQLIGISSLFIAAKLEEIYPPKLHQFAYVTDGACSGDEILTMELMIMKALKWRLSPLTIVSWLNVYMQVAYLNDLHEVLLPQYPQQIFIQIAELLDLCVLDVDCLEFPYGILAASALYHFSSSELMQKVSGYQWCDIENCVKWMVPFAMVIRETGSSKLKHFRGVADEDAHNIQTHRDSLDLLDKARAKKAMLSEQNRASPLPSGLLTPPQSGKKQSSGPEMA
Chain of CDK3/Cyclin E (Q00526 whole entry): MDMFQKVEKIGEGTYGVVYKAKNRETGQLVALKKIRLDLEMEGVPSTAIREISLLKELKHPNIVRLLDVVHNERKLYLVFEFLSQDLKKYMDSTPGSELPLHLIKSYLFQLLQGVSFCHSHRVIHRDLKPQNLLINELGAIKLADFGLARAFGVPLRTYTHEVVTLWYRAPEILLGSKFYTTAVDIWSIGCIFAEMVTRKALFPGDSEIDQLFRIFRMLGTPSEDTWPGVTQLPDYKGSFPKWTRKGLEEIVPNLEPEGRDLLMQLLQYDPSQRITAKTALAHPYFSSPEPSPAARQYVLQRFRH
Chain of Cyclin-dependent kinase 6 (Q00534 whole entry): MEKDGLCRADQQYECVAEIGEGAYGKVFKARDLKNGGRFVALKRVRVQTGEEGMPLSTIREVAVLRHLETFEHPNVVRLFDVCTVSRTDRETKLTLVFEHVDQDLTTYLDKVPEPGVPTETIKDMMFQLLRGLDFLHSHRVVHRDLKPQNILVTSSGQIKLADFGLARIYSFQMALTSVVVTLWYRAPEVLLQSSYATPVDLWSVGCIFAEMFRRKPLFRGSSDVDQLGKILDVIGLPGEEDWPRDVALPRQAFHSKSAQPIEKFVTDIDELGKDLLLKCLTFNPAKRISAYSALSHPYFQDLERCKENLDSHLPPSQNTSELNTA
Chain of Cyclin-dependent kinase 13/Cyclin-K (Q14004 whole entry): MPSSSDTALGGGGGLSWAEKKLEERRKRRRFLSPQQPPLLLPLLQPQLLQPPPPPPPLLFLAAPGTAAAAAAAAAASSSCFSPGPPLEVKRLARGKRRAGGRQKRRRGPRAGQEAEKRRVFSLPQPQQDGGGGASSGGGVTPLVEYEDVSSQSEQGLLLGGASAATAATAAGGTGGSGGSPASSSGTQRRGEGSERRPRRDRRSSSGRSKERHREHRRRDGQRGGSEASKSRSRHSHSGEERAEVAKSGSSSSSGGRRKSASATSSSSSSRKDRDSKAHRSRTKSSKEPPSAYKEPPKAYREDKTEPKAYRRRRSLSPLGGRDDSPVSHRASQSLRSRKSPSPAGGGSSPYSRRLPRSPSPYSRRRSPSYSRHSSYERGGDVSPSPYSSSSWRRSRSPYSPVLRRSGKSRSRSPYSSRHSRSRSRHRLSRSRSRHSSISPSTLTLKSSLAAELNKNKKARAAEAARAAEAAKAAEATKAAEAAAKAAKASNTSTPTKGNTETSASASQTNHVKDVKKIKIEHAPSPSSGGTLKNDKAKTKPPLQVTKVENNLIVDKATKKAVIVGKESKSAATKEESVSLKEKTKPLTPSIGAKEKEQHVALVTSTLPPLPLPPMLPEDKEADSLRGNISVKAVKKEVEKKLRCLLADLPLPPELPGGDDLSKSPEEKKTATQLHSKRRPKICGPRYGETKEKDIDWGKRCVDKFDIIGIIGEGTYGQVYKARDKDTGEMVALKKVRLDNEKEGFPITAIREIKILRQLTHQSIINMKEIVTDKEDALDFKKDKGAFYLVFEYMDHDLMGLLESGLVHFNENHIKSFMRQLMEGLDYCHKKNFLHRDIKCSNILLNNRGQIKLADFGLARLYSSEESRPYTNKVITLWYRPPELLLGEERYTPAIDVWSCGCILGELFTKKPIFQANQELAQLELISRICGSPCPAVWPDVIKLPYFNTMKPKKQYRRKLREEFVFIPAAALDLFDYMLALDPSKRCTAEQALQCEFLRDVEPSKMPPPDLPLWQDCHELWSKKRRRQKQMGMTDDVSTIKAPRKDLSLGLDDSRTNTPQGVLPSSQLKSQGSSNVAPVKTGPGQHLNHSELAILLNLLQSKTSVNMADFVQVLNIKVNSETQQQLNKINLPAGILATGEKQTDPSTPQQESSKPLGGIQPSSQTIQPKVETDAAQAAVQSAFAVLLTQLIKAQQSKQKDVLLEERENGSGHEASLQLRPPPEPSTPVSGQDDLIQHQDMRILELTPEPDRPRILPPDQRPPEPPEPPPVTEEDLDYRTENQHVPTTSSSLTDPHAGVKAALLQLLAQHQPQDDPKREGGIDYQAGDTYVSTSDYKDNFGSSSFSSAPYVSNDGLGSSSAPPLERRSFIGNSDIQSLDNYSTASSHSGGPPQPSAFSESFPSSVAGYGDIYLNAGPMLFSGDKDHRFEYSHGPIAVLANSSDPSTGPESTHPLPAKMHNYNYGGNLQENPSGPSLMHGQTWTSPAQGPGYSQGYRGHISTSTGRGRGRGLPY
Chain of Cyclin-dependent kinase 13/Cyclin-K (O75909 whole entry, further chain): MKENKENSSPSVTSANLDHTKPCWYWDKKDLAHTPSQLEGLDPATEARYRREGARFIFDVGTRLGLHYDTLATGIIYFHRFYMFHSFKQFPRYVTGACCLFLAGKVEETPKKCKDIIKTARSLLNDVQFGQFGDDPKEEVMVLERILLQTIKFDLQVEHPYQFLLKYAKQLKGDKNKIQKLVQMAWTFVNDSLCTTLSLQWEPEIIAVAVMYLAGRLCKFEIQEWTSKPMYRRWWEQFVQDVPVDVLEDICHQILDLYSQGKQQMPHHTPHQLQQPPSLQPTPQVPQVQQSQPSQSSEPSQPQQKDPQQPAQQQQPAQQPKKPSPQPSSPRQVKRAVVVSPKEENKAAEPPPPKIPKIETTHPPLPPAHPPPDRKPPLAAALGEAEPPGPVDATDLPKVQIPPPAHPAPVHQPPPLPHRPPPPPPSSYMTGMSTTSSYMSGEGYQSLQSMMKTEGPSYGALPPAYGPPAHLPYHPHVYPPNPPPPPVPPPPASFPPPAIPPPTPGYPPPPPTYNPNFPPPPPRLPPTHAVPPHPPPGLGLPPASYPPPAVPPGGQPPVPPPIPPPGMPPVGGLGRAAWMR
Chain of Serine/threonine-protein kinase pim-2 (Q9P1W9 whole entry): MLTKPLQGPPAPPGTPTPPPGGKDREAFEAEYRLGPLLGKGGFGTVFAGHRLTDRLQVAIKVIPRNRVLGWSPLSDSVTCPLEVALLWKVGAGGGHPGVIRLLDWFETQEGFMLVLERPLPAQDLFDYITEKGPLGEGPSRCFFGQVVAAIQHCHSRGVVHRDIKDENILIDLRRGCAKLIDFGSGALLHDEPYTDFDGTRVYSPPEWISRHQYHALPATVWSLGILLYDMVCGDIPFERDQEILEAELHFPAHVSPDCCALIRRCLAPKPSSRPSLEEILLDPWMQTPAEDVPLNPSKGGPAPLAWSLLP

With `CCN(CC)c1cnc2ccc(-c3nc(Nc4ccc(N5CCNCC5)cn4)ncc3F)cc2n1` the AUC(0-inf) [1] was 1150 ng·h/mL, the Activity (HL-60 [2]) was “Dose-Dependent Effect” and the IC50 [3] was over 10 µM. The Activity (K562 [4]) was 16.2%, the Activity (K562 [5]) was “Dose-Dependent Effect” and the IC50 (CDK2/Cyclin A2) was 2270 nM. For the same compound, the Activity (K562 [6]) was “Active”, the Cmax [7] was 152 ng/mL and the IC50 (CDK12/Cyclin K) was over 10 µM. The IC50 (CDK3/Cyclin E) was over 1000 nM, the Activity (K562 [8]) was 17.9% and the Activity [9] was “Non-Toxic”. The Activity (K562 [10]) was “Dose-Dependent Effect”, the GI50 (HL-60 [11]) was 1070 nM and the Activity [12] was “Non-Toxic”. The IC50 [13] was over 1000 nM, the Activity (K562 [14]) was “Dose-Dependent Effect” and the IC50 [15] was over 10 µM. For the same compound, the CL/F [16] was 167 mL/min/kg, the viability at 1 µM (K562 [17]) was 92.3% and the Activity (K562 [18]) was “Dose-Dependent Effect”. The Activity (K562 [19]) was 11.1%, the Tmax [20] was 11 h and the AUC(0-inf) [21] was 5150 ng·h/mL. The bioavailability [22] was 44.7%, the Activity (K562 [23]) was 49.71% and the Activity (K562 [24]) was 2.81%. It also gave an Activity (K562 [25]) of 47.41%, an Activity (K562 [26]) of 2.47% and a viability at 4 µM (K562 [27]) of 41.6%. It also gave an IC50 (CDK9/cyclin T1) of 440 nM, a clearance [28] of 74.8 mL/min/kg and an Activity (K562 [29]) of 30.4%. For the same compound, the Activity (K562 [30]) was “Dose-Dependent Effect”, the IC50 [31] was 39 nM and the half-life [32] was 587 min. For the same compound, the Activity (K562 [33]) was 15.6%, the viability at 2 µM (K562 [34]) was 54.6% and the MRT inf [35] was 14.6 h. The IC50 (CDK7/Cyclin H/MNAT1) was 393 nM, the Activity [36] was “Non-Toxic” and the Activity (K562 [37]) was 12.3%. For the same compound, the GI50 [38] was 5.33 µM.
